The text below walks through data of patent US20230324392A1, “METHODS AND COMPOSITIONS FOR TARGETING CYTOSOLIC DSDNA SIGNALING IN CHROMOSOMALLY UNSTABLE CANCERS” (MEMORIAL SLOAN KETTERING CANCER CENTER, priority 2020, published 2023).

One assay deals with CT26 cells. In words: Tail vein inoculation of CT26 cells in BALB/c mice, metastasis and survival. The settings on record: CT26, BALB/c, IP, vs vehicle. The assay is classed as in vivo, mouse.
The subject of assay [1] is 4T1 cells. In words: Ifnb1 and ISG expression in transfected 4T1 cells (qPCR). The assay is classed as cell-based, mouse. Here is the method: Quantitative PCR for STING inhibition study: RNA was extracted from cells with Trizol (Invitrogen, Carlsbad, CA, #15596026). cDNA was synthesized using the RNA to cDNA EcoDry™ Premix (Double Primed) kit (Takara #639549). Real-time PCR was performed to measure the relative mRNA expression levels of ISGs and the control GAPDH using Luna® Universal qPCR Master Mix (NEB, IPSWICH, MA, M3003L). The qPCR reaction and analysis were performed on a QuantStudio 6 platform (Life technology, Carlsbad, CA). The sequence of primers for Ccl5 is 5′-[…]-3′ and 5′-[…]-3′. The sequence of primers for Cxcl10 is 5′-[…]-3′ and 5′-[…]-3′, The sequence of primers for Isg15 is 5-A AAGAA-[…]-3′ and 5′-[…]-3′. The sequence for primers for Gapdh is 5′-[…]-3′ and 5′-[…]-3′.
Despite constitutive cGAS-STING activation, 4T1 cells had low baseline expression of Ifnb1 and other ISGs. […] Similar to our in vitro findings, control, cGAS-KO, and STING-KO tumors had low basal—and nearly undetectable—levels of IFN-β, when compared to those observed during active anti-tumor immune responses arising from immune checkpoint blockade of a responsive tumor model used as a reference control (FIG. 6D).
In general terms: Quantitative PCR measures a nucleic acid by following its amplification.

Assay [2] has as its system 4T1 cells. Description: Fluorescence-based indirect adenosine measurement after exogenous cGAMP. The assay is classed as cell-based, mouse. The settings on record: with and without EHNA.
Assay [3] concerns 4T1 cells. In words: Wound migration of control, Cgas-KO and Enpp1-KO 4T1 cells. The assay is classed as cell-based, mouse. Particulars: cGAMP 5.5 μm. Here is the method:
Cellular growth and migration assays: Cellular proliferation rates were assessed by seeding 5×10^4 control or Enpp1-KO 4T1 cells in 6-well plates (3-4 replicates per condition). Cells were seeded in the regular RPMI medium with 10% Fetal bovine serum (FBS). About 48 hours before cells growing to form a 90% confluency monolayer, regular media were replaced with media containing indicated drugs. […] Fresh medium was changed every 12 hours. When reaching ˜90% confluency, cells were treated with RPMI medium containing 10 μm Mitomycin C for 1 hour. Wounds were formed using sterile P200 pipette tips. Images of the wounds were captured every 8 hours and were analyzed with a wound healing tool macro in ImageJ (dev.mri.cnrs.fr/projects/imagej-macros/wiki/Wound_Healing_Tool).
Through its ability to bind extracellular adenosine receptors in both tumor and immune cells, adenosine promotes cancer cell migration and is a potent immune suppressor, respectively (FIG. 12B).

For the next assay, the system named is 4T1 tumors. In words: Wild-type or cGAS-knockout orthotopic 4T1 tumors treated intratumorally with ADU-S100. In kind it is in vivo, mouse. Particulars: ADU-S100 10 μg intratumorally, cGAS KO vs wild-type. Here is the method: Methods. Briefly, wild-type or cGAS-knockout 4T1 tumors were orthotopically transplanted in the mammary fat pad of BALB/c immune competent mice. cGAS was knocked out using CRISPR-Cas9. The mice were treated intratumorally with PBS (vehicle) or the STING agonist, ADU-S100 (10 μg).

Experimental for CT26 cells: Animal metastasis studies: Animal experiments were performed in accordance with protocols approved by the MSKCC Institutional Animal Care and Use Committee. […] There was no need to randomize animals. Investigators were not blinded to group allocation. For tail vein injections, 5×10^4 4T1, 2.5×10^4 B16F10, or 10^5 CT26 cells were injected into the tail vein of 6-7-week old BALB/c (4T1 and CT26) or C57BL/6 (B16F10) mice. Metastasis was primarily assessed through overall survival. Overall survival endpoint was met when the mice died or met the criteria for euthanasia under the IACUC protocol. Animals were censored when death was confirmed to have occurred due to metastasis-unrelated causes such as injury or death during injection, surgery, or anesthesia. Surface lung metastases were assessed at endpoint by direct visual examination after euthanasia at which points lungs were perfused and fixed in 4% paraformaldehyde (4T1 and B16F10 experiments) or stained using India-ink (CT26 experiments). […] H-151 was reconstituted in DMSO with concentration of 100 mM. Each mouse was injected intraperitoneally with 7.5 μL of H-151 stock solution in 200 μL of PBS with 0.1% Tween −80.

For `CCc1ccc(NC(=O)Nc2c[nH]c3ccccc23)cc1` [H-151], the “survival of tumor bearing mice” value in the assay with CT26 cells is reported as “significant prolongation in overall survival”.

For the molecule Poly(I.C), in the assay with 4T1 cells [1], the “induction of ISGs upon transfection” value is given as “robust induction of ISGs”.

With `Nc1nc2c(ncn2[C@@H]2O[C@@H]3COP(=O)(O)O[C@H]4[C@@H](O)[C@H](n5cnc6c(N)ncnc65)O[C@@H]4COP(=O)(O)O[C@@H]2[C@@H]3O)c(=O)[nH]1` [cGAMP, 2′3′-cGAMP], in the assay on 4T1 cells [1], the “increase in ISG expression upon transfection” value is given as around 2 fold and the “induction in Ifnb1 upon transfection” value is given as “no induction”. Further, the “H2O2 production after addition of exogenous cGAMP” value in the assay on 4T1 cells [2] was “concentration-dependent increase”. The “rescue of cancer cell migration by exogenous cGAMP” value in the assay on 4T1 cells [3] is “rescued migration only in Cgas-KO but not Enpp1-KO tumor cells”.

As for `Nc1ncnc2c1ncn2[C@@H]1O[C@@H]2COP(=O)([S-])O[C@@H]3[C@H](O)[C@@H](COP([O-])(=S)O[C@H]2[C@H]1O)O[C@H]3n1cnc2c(N)ncnc21.[Na+].[Na+]` (stereo partly shown) [ADU-S100], the “tumor sensitivity (tumor volume over time)” value in the assay on 4T1 tumors is given as “most sensitive condition”.
